What all share (type): biochemical
The subject of one test is MYC. The experiment in a line: In vitro transcription-translation (IVTT) assay, MYC reporter. To be noted: IVTT assay, HeLa S3 lysate, MYC reporter, normalized sfGFP/mCherry ratio; half-log dilutions 30 μM-0.1 μM, 2 hrs at 30° C. An outline of the steps:
(§1)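 Reporter: mCherry, P2A, then 3×FLAG-target peptide-sfGFP fusion, IRES-initiated; HeLa S3 lysate IVTT; cpd dilutions 30 μM−0.1 μM half-log in 100% DMSO (dilution-plate conc); DNA added last; 2 h, 30° C; PBS quench.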

The next test concerns CCND1. The experiment in a line: In vitro transcription-translation (IVTT) assay, CCND1 reporter. The conditions noted are these: IVTT assay, HeLa S3 lysate, sfGFP/mCherry ratio. Summed up:
as §1

The next test deals with NFKB1. Description: In vitro transcription-translation (IVTT) assay, NFKB1 reporter. The conditions noted are these: HeLa S3 lysate, sfGFP/mCherry ratio. As to the method: (§2) In vitro transcription-translation assay setup: Each assay includes a master mix containing lysate and shared components, a 96-well plate containing compound titrations for testing, a 96-well DNA plate with reporter constructs to be tested, 96-well skirted PCR plates, and 96-well flat-bottom, black, fluorescent assay plates. Reaction materials setup: (A) Master mix—15 mL conical tube (3 mL of HeLa S3 Lysate described above; 0.6 mL of ThermoFisher Accessory Proteins (#88882); 1.2 ml of ThermoFisher Reaction Mix (#88882); 0.54 mL of nuclease-free Water); (B) 96-Well Master Mix+Compound Plate (Half-log dilutions (30 μM−0.1 μM) of 4 compounds of interest are prepared in 100% DMSO); 96-Well DNA Plate (Five DNA constructs are plated into single columns within the plate. Row 1 of the column contains nuclease free H2O, all other wells contain 110 ng/μL plasmid DNA). Reactions are started by mixing 155 μL of master mix and 3.5 μL of compound serial dilutions, then 9.1 μL of master mix+compound mixture is aliquoted across 5 96-well plates. Reactions begin with final addition of 2 μL of DNA for a 11.1 μL reaction volume in each well. The entire plate is sealed, and incubated for 2 hrs at 30° C. After 2 hrs, quench the assay using 45 μL of PBS, and transfer 50 μL to a flat-bottom black microplate Quantify the sfGFP and mCherry signals from each well on each plate, taking 3 reads of each plate, and perform data analysis below.
(§3) In vitro transcription-translation assay data analysis: Each plate is read three times in channels for both sfGFP and mCherry signals. The average signal across these 3 reads is then calculated for further analysis. Control wells containing no DNA reporter are subtracted from reporter wells in the same column to remove auto-fluorescence of the lysate. Then, the ratio of sfGFP/mCherry is calculated per well, and these ratios are averaged across the triplicate experiments on the same plate. Finally, the ratio of each titration concentration is normalized to the no drug control to create the normalized stalling metric. The error on this measurement is determined by propagating error through the averaging and normalization steps. Values are plotted and fit for IC50 determination for each test sequence and titration of compound.

Another test has as its system MCL-1. Description: In vitro transcription-translation (IVTT) assay, MCL-1 reporter. The conditions noted are these: IVTT assay, HeLa S3 lysate, sfGFP/mCherry ratio; read-out: MCL1 IC50. Summed up: as §1
The next test concerns CCNTB1. The experiment in a line: In vitro transcription-translation (IVTT) assay, CCNTB1 reporter. To be noted: HeLa S3 lysate, sfGFP/mCherry ratio. The method, then:
as §2, §3

Where only a bound is given, the exact number is not on record here.

As usually defined, the IC50 is the concentration that inhibits the measured activity by half. With `O=C(NCc1cccc(F)c1)O[C@@H]1[C@@H](O)CN[C@@H]1Cc1ccc(OCF)cc1` [V190507, (2R,3S,4S)-2-(4-(fluoromethoxy)benzyl)-4-hydroxypyrrolidin-3-yl (3-fluorobenzyl)carbamate], the IC50 with MYC, in the test on CCND1 and in the test on NFKB1 was less than 10 µM throughout.

Regarding `O=C(NCc1cccc(F)c1)O[C@@H]1[C@@H](O)CN[C@@H]1Cc1ccc(-c2ccc(C(F)(F)F)cc2)cc1` [V192083, (2R,3S,4S)-4-hydroxy-2-{[4′-(trifluoromethyl)-[1,1′-biphenyl]-4-yl]methyl}pyrrolidin-3-yl N-[(3-fluorophenyl)methyl]carbamate], the IC50 in the test on MYC, in the test with CCND1, in the test with MCL-1 and with CCNTB1 was more than 30 µM each time.

For `O=C(NCc1cccc(F)c1)O[C@@H]1[C@@H](O)CN[C@@H]1Cc1ccc(-c2nnc(C(F)(F)F)s2)cc1` [V192102, (2R,3S,4S)-4-hydroxy-2-({4-[5-(trifluoromethyl)-1,3,4-thiadiazol-2-yl]phenyl}methyl)pyrrolidin-3-yl N-[(3-fluorophenyl)methyl]carbamate], the IC50 with MYC is 10 to 20 µM; in the test with CCND1, more than 30 µM; in the test with MCL-1, more than 30 µM; in the test on CCNTB1, 10 to 20 µM.

Consider `O=C(NCc1cccc(F)c1)O[C@@H]1[C@@H](O)CN[C@@H]1Cc1ccc(-c2ccc3ncsc3c2)cc1` [V192103, (2R,3S,4S)-2-{[4-(1,3-benzothiazol-6-yl)phenyl]methyl}-4-hydroxypyrrolidin-3-yl N-[(3-fluorophenyl)methyl]carbamate], for which the IC50 was less than 10 µM in the test with MYC, 10 to 20 µM in the test with CCND1, less than 10 µM with MCL-1 and less than 10 µM in the test on CCNTB1.

`O=C(NCc1ccc2c(c1)CCNC2)O[C@@H]1[C@@H](O)CN[C@@H]1Cc1ccc(-c2cncs2)cc1` [V192109, (2R,3S,4S)-4-hydroxy-2-(4-(thiazol-5-yl)benzyl)pyrrolidin-3-yl ((1,2,3,4-tetrahydroisoquinolin-6-yl)methyl)carbamate]: the IC50 in the test with MYC, in the test on CCND1, with MCL-1 and in the test on CCNTB1 was less than 10 µM in each case.

Regarding `O=C(NCc1cnsc1)O[C@@H]1[C@@H](O)CN[C@@H]1Cc1ccc(-c2cnco2)cc1` [V192110, (2R,3S,4S)-4-hydroxy-2-(4-(oxazol-5-yl)benzyl)pyrrolidin-3-yl (isothiazol-4-ylmethyl)carbamate], the half-inhibitory concentration (IC50) with MYC, in the test with CCND1 and in the test with NFKB1 was less than 10 µM throughout.

With `O=C(NCCC1CCNCC1)O[C@@H]1[C@@H](O)CN[C@@H]1Cc1ccc(-c2cncs2)cc1` [V192112, (2R,3S,4S)-4-hydroxy-2-{[4-(1,3-thiazol-5-yl)phenyl]methyl}pyrrolidin-3-yl N-[2-(piperidin-4-yl)ethyl]carbamate], the IC50 in the test on MYC, in the test with CCND1, with MCL-1 and in the test with CCNTB1 was less than 10 µM each time.

As to `O=C(NCC[C@@H]1CCCN1)O[C@@H]1[C@@H](O)CN[C@@H]1Cc1ccc(-c2cncs2)cc1` [V192113, (2R,3S,4S)-4-hydroxy-2-{[4-(1,3-thiazol-5-yl)phenyl]methyl}pyrrolidin-3-yl N-{2-[(2S)-pyrrolidin-2-yl]ethyl}carbamate], the IC50 in the test on MYC, with CCND1, with MCL-1 and in the test on CCNTB1 was less than 10 µM throughout.

In the case of `O=C(NCc1cccc(F)c1)O[C@@H]1[C@@H](O)CN[C@@H]1Cc1ccc(-c2cn3ccnc3s2)cc1` [V192127, (2R,3S,4S)-4-hydroxy-2-[(4-{imidazo[2,1-b][1,3]thiazol-2-yl}phenyl)methyl]pyrrolidin-3-yl N-[(3-fluorophenyl)methyl]carbamate], the IC50 in the test on MYC, in the test on CCND1 and with NFKB1 was less than 10 µM in each case.

`O=C(NCc1cccc(F)c1)O[C@@H]1[C@@H](O)CN[C@@H]1Cc1ccc(-c2cn3ccccc3n2)cc1` [V192139]: the IC50 in the test with MYC, in the test with CCND1, in the test with MCL-1 and with CCNTB1 was less than 10 µM throughout.

As for `O=C(NCc1cccc(F)c1)O[C@@H]1[C@@H](O)CN[C@@H]1Cc1ccc(-c2ccc(Cl)s2)cc1` [V192156, (2R,3S,4S)-2-{[4-(5-chlorothiophen-2-yl)phenyl]methyl}-4-hydroxypyrrolidin-3-yl N-[(3-fluorophenyl)methyl]carbamate], the IC50 in the test with MYC, with CCND1, with MCL-1 and in the test on CCNTB1 was more than 30 µM each time.

For the compound `O=C(NCc1cccc(-n2ccnc2)c1)O[C@@H]1[C@@H](O)CN[C@@H]1Cc1ccc(-c2cnco2)cc1` [V192167, (2R,3S,4S)-4-hydroxy-2-{[4-(1,3-oxazol-5-yl)phenyl]methyl}pyrrolidin-3-yl N-{[3-(imidazol-1-yl)phenyl]methyl}carbamate], the IC50 in the test on MYC, in the test with CCND1, in the test on MCL-1 and in the test with CCNTB1 was less than 10 µM throughout.

In the case of `O=C(NCC[C@@H]1CCNCC1(F)F)O[C@@H]1[C@@H](O)CN[C@@H]1Cc1ccc(-c2cnco2)cc1` [V192234, (2R,3S,4S)-4-hydroxy-2-{[4-(1,3-oxazol-5-yl)phenyl]methyl}pyrrolidin-3-yl N-{2-[(4S)-3,3-difluoropiperidin-4-yl]ethyl}carbamate], the half-maximal inhibitory concentration (IC50) with MYC, with CCND1 and with NFKB1 was less than 10 µM throughout.

Turning to `O=C(NCCC1CCNCC1)O[C@@H]1[C@@H](O)CN[C@@H]1Cc1ccc(-c2ccc(Cl)s2)cc1` [V192261, (2R,3S,4S)-2-{[4-(5-chlorothiophen-2-yl)phenyl]methyl}-4-hydroxypyrrolidin-3-yl N-[2-(piperidin-4-yl)ethyl]carbamate], the IC50 with MYC, in the test on CCND1 and in the test with NFKB1 was less than 10 µM each time.

Take `O=C(NCC1CC1)O[C@@H]1[C@@H](O)CN[C@@H]1Cc1ccc(-c2cnco2)cc1` [V192262, (2R,3S,4S)-4-hydroxy-2-{[4-(1,3-oxazol-5-yl)phenyl]methyl}pyrrolidin-3-yl N-(cyclopropylmethyl)carbamate]: the IC50 in the test with MYC, in the test on CCND1, with MCL-1 and with CCNTB1 was less than 10 µM throughout.

For the compound `O=C(NCC(F)F)O[C@@H]1[C@@H](O)CN[C@@H]1Cc1ccc(-c2cnco2)cc1` [V192264, (2R,3S,4S)-4-hydroxy-2-(4-(oxazol-5-yl)benzyl)pyrrolidin-3-yl (2,2-difluoroethyl)carbamate], the IC50 with MYC, in the test on CCND1, in the test with MCL-1 and in the test on CCNTB1 was less than 10 µM in each case.

On to `O=C(NCc1cccc(F)c1)O[C@@H]1[C@@H](O)CN[C@@H]1Cc1ccc(C(F)F)cc1` [V192274, (2R,3S,4S)-2-{[4-(difluoromethyl)phenyl]methyl}-4-hydroxypyrrolidin-3-yl N-[(3-fluorophenyl)methyl]carbamate], for which the IC50 in the test on MYC, in the test on CCND1 and in the test on NFKB1 was less than 10 µM each time.

For `O=C(NCc1cccc(OC(F)(F)F)c1)O[C@@H]1[C@@H](O)CN[C@@H]1Cc1ccc(-c2cnco2)cc1` [V192276, (2R,3S,4S)-4-hydroxy-2-{[4-(1,3-oxazol-5-yl)phenyl]methyl}pyrrolidin-3-yl N-{[3-(trifluoromethoxy)phenyl]methyl}carbamate], the IC50 in the test on MYC, in the test on CCND1 and in the test with NFKB1 was less than 10 µM throughout.

Consider `O=C(NCc1cncc(N2CCC2)c1)O[C@@H]1[C@@H](O)CN[C@@H]1Cc1ccc(-c2cnco2)cc1` [V192286, (2R,3S,4S)-4-hydroxy-2-{[4-(1,3-oxazol-5-yl)phenyl]methyl}pyrrolidin-3-yl N-{[5-(azetidin-1-yl)pyridin-3-yl]methyl}carbamate], for which the IC50 in the test on MYC, in the test with CCND1 and with NFKB1 was less than 10 µM throughout.

The values are drawn from patent publication US20250129021A1, “SMALL MOLECULE PROTEIN SYNTHESIS MODULATORS” (Interdict Bio, Inc., priority 2023, published 2025).
